In patent US12239655B2, “Combined modalities for nucleosides and/or NADPH oxidase (NOX) inhibitors as myeloid-specific antiviral agents” (Emory University, priority 2017, dated 2025):

What was measured:
[1] = Cellular toxicity assay in macrophages; type: cell-based, human; settings: human
[2] = Cellular toxicity assay in PBM cells; type: cell-based; settings: human
Experimental: (§1) The toxicity of the compounds was assessed in Vero, human PBM, CEM (human lymphoblastoid), MT-2, and HepG2 cells, as described previously (see Schinazi R. F., Sommadossi J.-P., Saalmann V., Cannon D. L., Xie M.-Y., Hart G. C., Smith G. A. & Hahn E. F. Antimicrob. Agents Chemother. 1990, 34, 1061-67). Cycloheximide was included as positive cytotoxic control, and untreated cells exposed to solvent were included as negative controls. The cytotoxicity IC50 was obtained from the concentration-response curve using the median effective method described previously (see Chou T.-C. & Talalay P. Adv. Enzyme Regul. 1984, 22, 27-55; Belen'kii M. S. & Schinazi R. F. Antiviral Res. 1994, 25, 1-11).

[3] = Cellular toxicity assay in CEM cells; type: cell-based; settings: human
Experimental: as §1

[4] = Cellular toxicity assay in Vero cells; type: cell-based; settings: African green monkey
Experimental: as §1

[5] = Cellular toxicity assay in Huh7 cells; type: cell-based; settings: human
HIV [6] = test: HIV assay in macrophages; type: cell-based; settings: for EC90 / EC50: Human immunodeficiency virus 1, Macrophage, Table 5 (Example 8); for Antiviral Potency Macrophages - EC50/90: EC50 / Antiviral Potency Macrophages - EC50/90: EC90: Table 5A
Experimental: (§2) PBM cells or macrophages were incubated with various concentrations of antiviral agents for 6 days PBM cells) or […] (macrophages), followed by harvest of supernatants and quantification of extracellular HIV using the RT assay or p24 assays as previously described (Gavegnano and Schinazi et al, 2012, AAC). AZT (positive control), no drug controls, or virus alone were also performed in each assay. Assays were performed in 8 independent experiments. The Chou and Tallalay method was used to calculate the effective inhibitory concentration 50/90 as previously described (Gavegnano and Schinazi et al, 2012, AAC).

HIV [7] = test: HIV assay in PBM cells; type: cell-based
Experimental: as §2

[8] = Bone marrow cytotoxicity, GM lineage (CFU-GM); type: cell-based, human; settings: human, Table 8A, first value of the cell, read-out: Cytotoxicity: MTT IC50, Bone Marrow (GM Lineage)
Experimental: (§3) Primary human bone marrow mononuclear cells can be obtained commercially from Cambrex Bioscience (Walkersville, MD). CFU-GM assays is carried out using a bilayer soft agar in the presence of 50 units/mL human recombinant granulocyte/macrophage colony-stimulating factor, while BFU-E assays used a […] matrix containing 1 unit/mL erythropoietin (see Sommadossi J P, Carlisle R. Toxicity of 3′-azido-3′-deoxythymidine and 9-(1,3-dihydroxy-2-propoxymethyl) guanine for normal human hepatopoietic progenitor cells in vitro. Antimicrob. Agents Chemother. 1987; 31: 452-454; Sommadossi, JP, Schinazi, RF, Chu, C K, and Xie, M Y. Comparison of cytotoxicity of the (−) and (+) enantiomer of 2′,3′-dideoxy-3′-thiacytidine in normal human bone marrow progenitor cells. Biochem. Pharmacol. 1992; 44:1921-1925). Each experiment can be performed in duplicate in cells from three different donors. AZT is used as a positive control. […] The 50% inhibitory concentration (IC50) can be obtained by least-squares linear regression analysis of the logarithm of drug concentration versus BFU-E survival fractions. Statistical analysis can be performed with Student's t test for independent non-paired samples.

[9] = Bone marrow cytotoxicity, erythroid lineage (BFU-E); type: cell-based, human; settings: human; Table 8A; first value of the cell; read-out: Cytotoxicity: MTT IC50, Bone Marrow (Erythroid Lineage)
Experimental: as §3

Macrophages = test: Cellular toxicity assay in macrophages; type: cell-based, human; settings: Table 8A; slash not defined, head says IC50
Bone Marrow (GM Lineage) = test: Bone marrow cytotoxicity, GM lineage (CFU-GM); type: cell-based, human; settings: Table 8A; slash not defined, head says IC50
Experimental: as §3

[10] = tested on: Bone Marrow (Erythroid Lineage); test: Bone marrow cytotoxicity, erythroid lineage (BFU-E); type: cell-based, human; settings: Table 8A; slash not defined, head says IC50
Experimental: as §3

[11] = Table 8A, first value of the cell, read-out: Cytotoxicity: MTT IC50, Macrophages
[12] = Table 8A, MTT, read-out: Cytotoxicity: MTT IC50, PBM
[13] = Table 8A, MTT, read-out: Cytotoxicity: MTT IC50, CEM
[14] = Table 8A, MTT, read-out: Cytotoxicity: MTT IC50, Vero
[15] = Table 8A, MTT, read-out: Cytotoxicity: MTT IC50, Huh7
[16] = Human immunodeficiency virus 1, PBMC, 144 h, Table 5 (Example 8), HIV in PBM cells, 6 days, read-out: PBM Cells EC50
[17] = macrophages, Table 8, read-out: Cytotoxicity IC50, Macrophages
[18] = PBM cells, Table 8, read-out: Cytotoxicity IC50, PBM
[19] = CEM lymphoblastoid cells, Table 8, read-out: Cytotoxicity IC50, CEM
[20] = Vero cells, Table 8, read-out: Cytotoxicity IC50, Vero
[21] = macrophages, Table 8A, first value of the cell, read-out: Cytotoxicity: MTT IC50, Macrophages
[22] = PBM cells, Table 8A, MTT, read-out: Cytotoxicity: MTT IC50, PBM
[23] = CEM lymphoblastoid cells, Table 8A, MTT, read-out: Cytotoxicity: MTT IC50, CEM
[24] = Vero cells, Table 8A, MTT, read-out: Cytotoxicity: MTT IC50, Vero
[25] = Huh7 cells, Table 8A, MTT, read-out: Cytotoxicity: MTT IC50, Huh7
[26] = primary bone marrow mononuclear cells, GM lineage (CFU-GM)
[27] = Human immunodeficiency virus 1, PBMC, Table 5A, HIV in PBM cells, read-out: Antiviral Potency PBM Cells - EC50/90: EC50
[28] = Table 5A, HIV in PBM cells, read-out: Antiviral Potency PBM Cells - EC50/90: EC50

SMILES: C[C@@H]1C[C@@H]([C@H](O)CC2CC(=O)NC(=O)C2)C(=O)[C@@H](C)C1
- IC50 [1, 11]: 6.9 ± 0.9 µM
- IC50 [2, 12]: 2.5 µM
- IC50 [3, 13]: 0.06 µM
- IC50 [4, 14]: 0.7 µM
- IC50 [5, 15]: 0.9 µM

SMILES: C#C[C@]1(CO)O[C@@H](n2cnc3c(N)nc(F)nc32)CC1O (some centres unmarked)
- EC90 (HIV [6]): 0.01 nM

SMILES: C#C[C@]1(CO)O[C@@H](n2cnc3c(N)nc(F)nc32)C(O)C1O (some centres unmarked)
- EC90 (HIV [7]; Human immunodeficiency virus 1, PBMC, 144 h, Table 5 (Example 8), HIV in PBM cells, 6 days): 19.1 µM
- EC50 (HIV [7]; [16]): 3.2 µM
- EC50 (HIV [6]): 0.001 µM
- EC90 (HIV [6]): 20 nM

SMILES: C#C[C@]1(CO)O[C@@H](n2cnc3c(N)nc(F)nc32)C[C@@H]1O [drawing 60]
- IC50 [1, 17]: 2.4 µM
- IC50 [2, 18]: 1.1 µM
- IC50 [3, 19]: 6.8 µM
- IC50 [4, 20]: ≥ 100 µM

SMILES: C#C[C@]1(CO)O[C@@H](n2cnc3c(N)nc(F)nc32)[C@H](O)[C@@H]1O [drawing 61]
- IC50 [1, 17]: 0.7 µM
- IC50 [2, 18]: 3.2 µM
- IC50 [3, 19]: 52 µM
- IC50 [4, 20]: > 100 µM

SMILES: CN(C)c1cccc(-c2c3c(=O)n(-c4ccccc4Cl)[nH]c3cc(=O)n2C)c1 [drawing 62]
- IC50 [1, 17]: > 10 µM
- IC50 [2, 18]: > 100 µM

SMILES: CC(=O)c1ccc2c(c1)Nc1ccccc1S2 [drawing 63]
- IC50 [1, 17]: > 10 µM
- IC50 [2, 18]: > 100 µM

SMILES: COc1ccc(NC(=O)Nc2ccc(N)cc2)cc1 [drawing 64]
- IC50 [1, 17]: > 10 µM
- IC50 [2, 18]: > 100 µM

SMILES: C#C[C@]1(CO)O[C@@H](n2ccc(=O)[nH]c2=O)[C@H](O)[C@@H]1O [drawing 65]
- IC50 [1, 21]: > 100 µM
- IC50 [2, 22]: > 100 µM
- IC50 [3, 23]: > 100 µM
- IC50 [4, 24]: > 100 µM
- IC50 [5, 25]: > 100 µM
- IC50 [8, 26]: > 100 µM
- IC50 [9]: > 100 µM

SMILES: C#C[C@]1(COP(=O)(N[C@@H](C)C(=O)OC(C)C)Oc2ccccc2)O[C@@H](n2ccc(=O)[nH]c2=O)[C@H](O)[C@@H]1O (some centres unmarked) [drawing 66]
- IC50 [1, 11]: > 100 µM
- IC50 [2, 12]: > 100 µM
- IC50 [3, 13]: > 100 µM
- IC50 [4, 14]: > 100 µM
- IC50 [5, 15]: > 100 µM
- IC50 [8]: > 100 µM
- IC50 [9]: > 100 µM

SMILES: C#C[C@]1(CO)O[C@@H](n2cnc3c(N)nc(F)nc32)C[C@@H]1O [drawing 67]
- IC50 [1, 21]: 21 µM
- Macrophages, second value after the slash (Macrophages): 9.2 µM
- IC50 [2, 22]: 2.9 µM
- IC50 [3, 23]: 1.7 µM
- IC50 [4, 24]: 3.2 µM
- IC50 [8, 26]: 1.9 µM
- Bone Marrow (GM Lineage), second value after the slash (Bone Marrow (GM Lineage)): 22.4 µM
- IC50 [9]: 2.4 µM
- Bone Marrow (Erythroid Lineage), second value after the slash [10]: 8.6 µM

SMILES: C#C[C@]1(CO)O[C@@H](n2cnc3c(N)nc(F)nc32)[C@H](O)[C@@H]1O [drawing 68]
- IC50 [1, 21]: 3.2 ± 0.3 µM
- IC50 [2, 22]: 2.2 µM
- IC50 [3, 23]: 1.9 µM
- IC50 [4, 24]: 12.9 µM
- IC50 [5, 25]: 11.4 µM
- IC50 [8, 26]: 0.4 µM
- Bone Marrow (GM Lineage), second value after the slash (Bone Marrow (GM Lineage)): 12.7 µM
- IC50 [9]: 0.7 µM
- Bone Marrow (Erythroid Lineage), second value after the slash [10]: 5.4 µM

SMILES: O=c1c2cc(F)ccc2sn1-c1ccc2c(c1)OCO2 [drawing 70]
- IC50 ([2]; PBM cells, Table 8B, MTS (head line), read-out: Cytotoxicity: IC50, PBM): 58.3 ± 10.9 µM
- IC50 ([3]; CEM lymphoblastoid cells, Table 8B, MTT (head line), read-out: Cytotoxicity: IC50, CEM): 3.7 µM
- IC50 ([4]; Vero cells, Table 8B, MTT (head line), read-out: Cytotoxicity: IC50, Vero): 20.1 µM
- IC50 ([5]; Huh7 cells, Table 8B, MTT/MTS (head line), read-out: Cytotoxicity: IC50, Huh7): 379 ± 19.2 µM

SMILES: CN(C)c1cccc(-c2c3c(=O)n(-c4ccccc4Cl)[nH]c3cc(=O)n2C)c1 [drawing 73]
- EC50 (HIV [7]; [16]): > 100 µM
- EC50 (HIV [6]): 0.03 µM
- EC90 (HIV [6]): 300 nM

SMILES: CC(=O)c1ccc2c(c1)Nc1ccccc1S2 [drawing 74]
- EC50 (HIV [7]; [16]): > 100 µM
- EC50 (HIV [6]): 0.02 µM
- EC90 (HIV [6]): 200 nM

SMILES: COc1ccc(NC(=O)Nc2ccc(N)cc2)cc1 [drawing 75]
- EC50 (HIV [7]; [16]): > 100 µM
- EC50 (HIV [6]): 0.001 µM
- EC90 (HIV [6]): 100 nM

SMILES: C#C[C@]1(CO)O[C@@H](n2ccc(=O)[nH]c2=O)[C@H](O)[C@@H]1O [drawing 76]
- EC50 (HIV [7]; [27]): > 10 µM
- Antiviral Potency Macrophages - EC50/90: EC50 (HIV [6]): 16600 ± 3200 nM
- Antiviral Potency Macrophages - EC50/90: EC90 (HIV [6]): > 100000 nM

SMILES: C#C[C@]1(COP(=O)(N[C@@H](C)C(=O)OC(C)C)Oc2ccccc2)O[C@@H](n2ccc(=O)[nH]c2=O)[C@H](O)[C@@H]1O (some centres unmarked) [drawing 77]
- EC50 (HIV [7]; Human immunodeficiency virus 1, PBMC, read-out: Antiviral Potency PBM Cells - EC50/90: EC50): > 10 µM
- Antiviral Potency Macrophages - EC50/90: EC50 (HIV [6]): 0.1 ± 6 nM
- Antiviral Potency Macrophages - EC50/90: EC90 (HIV [6]): 9 ± 7 nM

SMILES: C#C[C@]1(CO)O[C@@H](n2cnc3c(N)nc(F)nc32)C[C@@H]1O [drawing 78]
- Antiviral Potency PBM Cells - EC50/90: EC90 (HIV [7]; Table 5A, HIV in PBM cells): 0.0000001 µM
- EC50 (HIV [7]; [28]): 0.000000001 µM
- Antiviral Potency Macrophages - EC50/90: EC50 (HIV [6]): 3e-05 nM
- Antiviral Potency Macrophages - EC50/90: EC90 (HIV [6]): 7e-06 nM

SMILES: C#C[C@]1(CO)O[C@@H](n2cnc3c(N)nc(F)nc32)[C@H](O)[C@@H]1O [drawing 79]
- EC50 (HIV [7]; [27]): 1.8 µM
- Antiviral Potency Macrophages - EC50/90: EC50 (HIV [6]): 1 ± 2 nM
- Antiviral Potency Macrophages - EC50/90: EC90 (HIV [6]): 20 ± 10 nM

SMILES: O=c1c2cc(F)ccc2sn1-c1ccc2c(c1)OCO2 [drawing 81]
- Antiviral Potency PBM Cells - EC50/90: EC90 (HIV [7]; Table 5A, HIV in PBM cells): 12.9 µM
- EC50 (HIV [7]; [28]): 0.7 µM
- Antiviral Potency Macrophages - EC50/90: EC50 (HIV [6]): 9 nM
- Antiviral Potency Macrophages - EC50/90: EC90 (HIV [6]): 300 nM
